Measured values reported in patent US10466233B2, “Genetically encoded probe for quantification of lactate and methods for quantifying metabolic rates and lactate transport” (CENTRO DE ESTUDIOS CIENTIFICOS DE VALDIVIA, priority 2012, dated 2019).

Assays:
[1] = target: T1, mitochondrial pyruvate transporter (PT) (Homo sapiens, UniProt O95563+Q9Y5U8); assay: Intracellular lactate in HEK293 cells after inhibition of the mitochondrial pyruvate transporter; assay type: cell-based; conditions: concentration that does not affect MCT function
T1 construct: endogenous in cells; host or cells: HEK293 cells (ATCC) expressing the lactate sensor
T1 sequence (Q9Y5U8 1-109): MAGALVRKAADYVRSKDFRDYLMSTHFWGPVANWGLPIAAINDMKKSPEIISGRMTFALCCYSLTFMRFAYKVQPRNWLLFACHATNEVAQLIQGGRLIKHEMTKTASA
T1 sequence (O95563 1-127): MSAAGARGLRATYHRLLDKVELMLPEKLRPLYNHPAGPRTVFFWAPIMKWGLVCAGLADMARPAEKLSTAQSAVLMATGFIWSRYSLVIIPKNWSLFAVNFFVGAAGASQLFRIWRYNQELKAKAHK
Text: (§1) Animals and Cell Cultures.
(§2) Fluorescence Measurements.
Because the reaction catalyzed by LDH is relatively fast, the cytosolic pools of lactate and pyruvate are tightly linked, and variations in pyruvate are faithfully mimicked by lactate. Accordingly, perturbation of the steady-state by addition of a blocker of the mitochondrial pyruvate transporter (PT) will cause intracellular lactate accumulation at a rate equal to the rate of pyruvate consumption by mitochondria.
To further validate methods 2 and 3, the blockers were applied sequentially and a mathematical model based on the kinetic model described in FIG. 14 was fitted to the data. The responses of intracellular lactate to transient inhibitions of the PT with 4-CIN (200 μM) and the MCTs with phloretin (50 μM) were measured in the same HEK293 cell in the presence of 25 mM glucose and no extracellular lactate. The straight lines represent the slopes of the lactate increases fitted by linear regression during the first minute (4-CIN) or during the whole exposure (phloretin). The red line represents the best fit of the kinetic model to the data, as described in Experimental Procedures, assuming full inhibition of the transporters. […] PT and lactate release rates respectively estimated from the initial slopes of lactate increase after transporter inhibition were over 90% of those estimated by modeling. […]

MCT [2] = assay: Intracellular lactate in HEK293 cells after MCT blockage; assay type: cell-based
Description: as §1, §2
The diagram in FIG. 14 illustrates how the intracellular concentration of lactate is determined by the dynamic balance between pyruvate production by glycolysis, pyruvate consumption by mitochondria and lactate exchange through MCTs. In cells that are exporting lactate, perturbation of the steady state by addition of a blocker of the MCT is expected to cause lactate accumulation. In cells that are net lactate importers, an MCT-blocker is expected to cause depletion in intracellular lactate. In both cases, the rate of change will be equal to the rate of lactate production or consumption. […] Phloretin is also known to inhibit GLUT glucose transporters, however this should not compromise the analysis of astrocytes, neurons, or the cell lines so far characterized, which maintain resting intracellular glucose at levels well above the Km of hexokinase (Bittner et al., 2010; Takanaga et al., 2008; Fehr et al., 2003). […]
To further validate methods 2 and 3, the blockers were applied sequentially and a mathematical model based on the kinetic model described in FIG. 14 was fitted to the data. The responses of intracellular lactate to transient inhibitions of the PT with 4-CIN (200 μM) and the MCTs with phloretin (50 μM) were measured in the same HEK293 cell in the presence of 25 mM glucose and no extracellular lactate. […]

[3] = test system: oxidative phosphorylation; conditions: astrocytes, 5 mM
Description: (§5) Animals and Cell Cultures. Animals used were mixed F1 male mice (C57BL/6J×CBA/J), kept in an animal room under Specific Pathogen Free (SPF) conditions at a room temperature of 20±2° C., in a 12/12 h light/dark cycle with free access to food and water. […] Mixed cortical cultures of neuronal and glial cells (1-3 day-old neonates) were prepared as described (Loaiza et al., 2003). […] Cultures were transfected at 60% confluence using Lipofectamine 2000 (Gibco) or alternatively, exposed to 5×10^6 PFU of Ad lactate sensor of the present invention (Vector Biolab), and studied after 24-72 h.
(§6) Fluorescence Measurements. […] Cells were imaged at room temperature (22-25° C.) in a 95% air/5% CO2-gassed solution of the following composition (in mM): 112 NaCl, 1.25 CaCl2, 1.25 MgSO4, 1-2 glucose, 10 HEPES, 24 NaHCO^3, pH 7.4, with 3 mM KCl (astrocytes) or 5 mM KCl (HEK and T98G) using an upright Olympus FV1000 Confocal Microscope equipped with a 20× water immersion objective (N.A. 1.0) and a 440 nm solid-state laser. Alternatively, cells were imaged with an Olympus IX70 or with an Olympus BX51 microscope equipped with a 40× oil-immersion objective (NA 1.3) or with a 20× water-immersion objective (NA 0.95). […]

[4] = target: T2, lactate sensor Variant 7: mTFP - full length L1dR from E. coli, no linkers - Venus, SEQ ID NO 7 (Escherichia coli, UniProt P0ACL7); assay: Fluorescence ratio (FRET) dose-response of purified lactate nanosensor to lactate; assay type: binding; conditions: millimolar levels
T2 construct: His tag (inferred from the nickel-resin purification); made in house; host or cells: E. coli BL21 (DE3)
Description: Also surprising was the observation that the DNA-binding domain is important for the FRET change, and that the sensors with no linkers are more responsive (FIG. 4). […] It contains the full length L1dR from E. coli and no linkers. […] The affinity constant of L1dR for L-lactate is not known. […] This unique property of L1dR confers the lactate sensor the desirable ability of reporting across four orders of magnitude (from 1 μM to 10 mM), instead of the two orders afforded by one-site sensors.
(§3) Protein Purification. Plasmid constructs were transformed into E. coli BL21 (DE3). A single colony was inoculated in 100 ml of LB medium with […] ampicillin (without IPTG) and shaken in the dark for 2-3 days. Cells were collected by centrifugation at 5000 rpm (4° C.) for 10 min and disrupted by sonication (Hielscher Ultrasound Technology) in 5 mL of Tris-HCl buffer pH 8.0. A cell-free extract was obtained by centrifugation at 10,000 rpm (4° C.) for 1 hour and filtering of the supernatant (0.45 μm). Proteins were purified using a Nickel resin (His Bin® from Novagen) as recommended by the manufacturer. Eluted proteins were quantified using the Biuret method and stored at −20° C. in 20% glycerol.
as §2

[5] = test system: monocarboxylate transporter (MCT) in astrocytes; assay: Astrocytic lactate uptake via MCT monitored with the lactate sensor; assay type: cell-based, mouse; conditions: 1 mM lactate
Text: as §1, §2
(§4) By controlling the exchange of lactate between cells and the interstitial space, MCTs are nodal points of tissue metabolism. MCTs catalyze the stoichiometric translocation of lactate and a proton and their activity can be measured with single-cell resolution by monitoring intracellular pH with a dye such as BCECF. However, 99.9% of protons are bound to proteins, phospholipids and other sites, and are exchanged through many transporters other than the MCT, which makes pH an imperfect proxy for lactate. To compare the performances of the lactate sensor of the present invention and BCECF, we chose astrocytes. When expressed in astrocytes, the lactate sensor of the present invention responded well to extracellular lactate, allowing real-time monitoring of lactate influx and efflux (FIG. 13). […] In contrast, exposure to extracellular lactate produced only a small change in intracellular pH as detected with BCECF (FIG. 15). […] Lactate may also be transported independently of protons through gap junctions (Rouach et al., 2008) and possibly through connexin hemichannels and pannexin channels, fluxes that are invisible to pH measurements and that may now be measured with the present invention.

MCT [6] = assay: Initial rate of astrocytic lactate uptake measured with the lactate sensor; assay type: cell-based, mice; conditions: 1 mM lactate, 50 μM blocker, astrocytes
Text: as §1, §2, §4

MCT [7] = assay: Intracellular lactate in astrocytes after MCT blockage; assay type: cell-based, mice; conditions: 50 μM
Description: as §1, §2
The diagram in FIG. 14 illustrates how the intracellular concentration of lactate is determined by the dynamic balance between pyruvate production by glycolysis, pyruvate consumption by mitochondria and lactate exchange through MCTs. In cells that are exporting lactate, perturbation of the steady state by addition of a blocker of the MCT is expected to cause lactate accumulation. In cells that are net lactate importers, an MCT-blocker is expected to cause depletion in intracellular lactate. In both cases, the rate of change will be equal to the rate of lactate production or consumption. […] Phloretin is also known to inhibit GLUT glucose transporters, however this should not compromise the analysis of astrocytes, neurons, or the cell lines so far characterized, which maintain resting intracellular glucose at levels well above the Km of hexokinase (Bittner et al., 2010; Takanaga et al., 2008; Fehr et al., 2003). In these cells, glucose consumption remains constant for several minutes in the presence of glucose transporter blockers like phloretin or cytochalasin B (Bittner et al., 2010). Thus, during the first few minutes of phloretin application, the rate of lactate accumulation is not diminished by lack of glucose supply.

[8] = test system: oxidative phosphorylation in astrocytes; assay: Rate of lactate production on inhibition of oxidative phosphorylation, measured with the lactate sensor; conditions: Mus musculus, Astrocyte, read-out: fold increase in the rate of lactate production
Description: as §5, §6

[9] = Fluorescence ratio (mTFP/Venus) response of purified lactate sensor to lactate in vitro; assay type: binding; conditions: comparison of sensor variants (FIG. 4)
Description: as §3, §2

Question: For `N#CC(=Cc1ccc(O)cc1)C(=O)O` [Variant 4-CIN, α-Cyano-4-hydroxycinnamate], which “effect on intracellular lactate” value [1] is on record?
Answer: led to an increase in intracellular lactate

Question: And the “block of MCTs” value (MCT [2]; HEK293 cell, 200 μM, 25 mM glucose, no extracellular lactate)?
Answer: did not block MCTs to a significant extent

Question: With `[N-]=[N+]=[N-].[Na+]` [azide, sodium azide] as the molecule, how does the “increase in the rate of lactate production” value [3] read?
Answer: 26±4 fold

Question: Which “change in FRET (specificity)” value [4] does the source give for `OC[C@H]1OC(O)[C@H](O)[C@@H](O)[C@@H]1O` (some centres unmarked) [glucose] here?
Answer: only lactate induced a significant change in FRET

Question: Which “initial rate of astrocytic uptake of lactate” value [5] does the source give for `C[C@H](O)C(=O)O` [lactate] here?
Answer: 1.6 ± 0.5 µM/s

Question: And the “change in FRET (specificity)” value [4]?
Answer: only lactate induced a significant change in FRET

Question: Which “inhibition of initial rate of astrocytic lactate uptake” value (MCT [6]) does the source give for `O=C(CCc1ccc(O)cc1)c1c(O)cc(O)cc1O` [phloretin] here?
Answer: 96±1%

Question: What about the “effect on intracellular lactate” value (MCT [2]; HEK293 cells, 50 μM) of the same molecule?
Answer: caused the expected increase in intracellular lactate

Question: And the “effect on intracellular lactate” value (MCT [7])?
Answer: caused the expected increase in intracellular lactate

Question: Which fold induction at 5000 µM [8] does the source give for `[N-]=[N+]=[N-]` [sodium azide] here?
Answer: 26 ± 4

Question: For “Variant 7: Most responsive FRET lactate sensor: mTFP, full length L1dR from E. coli, no linkers, Venus; SEQ ID NO 7”, which “change in fluorescence ratio in response to lactate” value [9] is on record?
Answer: most responsive variant
